Reference: US20220370416A1, “COMPOUNDS AND METHODS FOR TARGETED DEGRADATION OF KRAS” (Arvinas Operations, Inc., priority 2020, published 2022)

Target: HiBit-KRAS^G12C (Homo sapiens, UniProt P01116, G12C)
Assay: HiBit degradation assay in SW1573 HiBit-KRas^G12C cells
Type: cell-based
Parameters: expressed in transfected cells; host or cells: SW1573 (clone E6), modified pcDNA3.1 vector, TK promoter
Settings: 0.1% DMSO, 24 hours; for Dmax: SW1573, SW1573 HiBit-KRas^G12C, read-out: KRas^G12C-HiBit (SW1573; 0.1% DMSO) Dmax**; for DC50: SW1573 HiBit-KRas^G12C, read-out: KRas^G12C-HIBit (SW1573; 0.1% DMSO) DC50*
Experimental: Reagents. SW1573 (CRL-2170) and MiaPaCa-2 (CRL-1420) cells were purchased from ATCC. Both cell lines are […] for the G12C mutation in KRAS. SW1573 cells were cultured in DMEM+F12+Glutamax (+Sodium Bicarbonate, +sodium pyruvate, Thermofisher scientific, #10565) supplemented with 10% FBS (Thermofisher scientific, #2060357) and 1% Antibiotic-Antimycotic (Thermofisher scientific, #15240096). MiaPaCa-2 cells were cultured in DMEM+Glutamax media (Thermofisher scientific, #10566) supplemented with 10% FBS (Thermofisher scientific, #2060357) and 1% Antibiotic-Antimycotic (Thermofisher scientific, #15240096). For degradation assays, 384 well plates were purchased from Corning (Corning® CellBIND® 384-well Flat Clear Bottom Black Polystyrene Microplates, Low Flange, #3770). Gambogic acid was purchased from Selleckchem (#S2448). Alamar blue was purchased from Thermofisher scientific (A50101) and used according to manufacturer instructions. The Nano-Glo® HiBit Lytic Detection System and Nano-Glo® HiBit Blotting System were purchased from Promega (#N3050 and #N2410) and used according to manufacturer instructions.
To create the SW1573 HiBit-KRAS^G12C cell line, the nucleotide sequence encoding the 11 amino acid HiBit tag from Promega (Schwinn, M. K. et al. (2018) CRISPR-mediated tagging of endogenous proteins with a luminescent peptide. ACS Chem. Biol. 13(2), 467-474) was appended to the N-terminus of the KRAS^G12C coding sequence. This synthesized DNA was cloned into a modified pcDNA3.1 vector under the control of the thymidine kinase (TK) promoter. This HiBit-KRAS^G12C expressing plasmid was transfected into parental SW1573 cells and colonies were selected using 400 μg/mL zeocin. The resulting clonal lines were screened for expression of HiBit-KRAS^G12C protein using Nano-Glo® HiBit Blotting System. A luminescent band of the correct size for HiBit-KRAS^G12C was detected in several clones. Clone E6 was selected for further studies.
Either SW1573 HiBit-KRas^G12C or MiaPaCa-2 HiBit-KRas^G12C cells were plated at 9000 cells/well in a 384 well plate (Corning #3770). Exemplary heterobifunctional molecules and positive controls were diluted in the appropriate cell media and applied to the plated cells resulting in a final concentration titration of 10 μM to 20 nM in either 0.1% or 0.5% dimethyl sulfoxide (DMSO). Gambogic acid was used as a positive control for cytotoxicity and titrated from 10 μM to 78 nM. All assays were performed in triplicate. Cells were treated with compounds for 24 hours at 37° C. in an incubator containing 5% CO2. Following treatment, alamar blue was used to determine if any compounds led to a loss in cell viability after 24 hours. The 10× alamar blue reagent was added to a final concentration of 1× as recommended by the manufacturer and cells were returned to the incubator for 4 hours. Plates were then allowed to equilibrate to room temperature and fluorescence was measured using a Perkin-Elmer EnVision. After completion of the fluorescence read, the liquid from each well was removed and the cells were washed with PBS. The Nano-Glo® HiBiT detection reagent was prepared according to the manufacturer's instructions and added to each well after the PBS wash was removed. Following incubation at room temperature for 45 minutes, the luminescence was read using the ultra-sensitive luminescence aperture on the Envision instrument.
Fluorescence values from the alamar blue treatment were normalized to the DMSO only control for each compound titration. We hypothesized that compounds that led to a ≥50% loss in cell viability of the KRAS-independent SW1573 HiBit-KRas^G12C cells were likely generally cytotoxic and loss of HiBit-KRAS^G12C signal from these compounds may be due to lower cell number and not specific KRAS^G12C degradation. These points were therefore excluded from the data analysis for degradation. […]

HiBit-KRAS^G12C, sequence (P01116 1-186 isoform P01116-2 G12C limits assumed): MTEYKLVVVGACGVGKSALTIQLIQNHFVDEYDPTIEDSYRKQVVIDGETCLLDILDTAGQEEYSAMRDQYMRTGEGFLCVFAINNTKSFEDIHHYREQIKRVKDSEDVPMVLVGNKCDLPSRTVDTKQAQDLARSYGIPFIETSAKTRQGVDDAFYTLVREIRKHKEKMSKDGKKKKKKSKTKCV

Structure (SMILES)	Dmax	DC50
C=CC(=O)N1CCN(c2nc(OC[C@@H]3C[C@@H](OCCOc4cc(-c5scnc5C)ccc4CNC(=O)[C@@H]4C[C@@H](O)CN4C(=O)[C@@H](c4cc(C)no4)C(C)C)CN3C)nc3c2CCN(c2cccc4ccccc24)C3)C[C@@H]1CC#N [Compound 87, (2S,4R)-N-{[2-(2-{[(3R,5S)-5-[({4-[(3S)-3-(cyanomethyl)-4-(prop-2-enoyl)piperazin-1-yl]-7-(naphthalen-1-yl)-5H,6H,7H,8H-pyrido[3,4-d]pyrimidin-2-yl}oxy)methyl]-1-methylpyrrolidin-3-yl]oxy}ethoxy)-4-(4-methyl-1,3-thiazol-5-yl)phenyl]methyl}-4-hydroxy-1-[(2R)-3-methyl-2-(3-methyl-1,2-oxazol-5-yl)butanoyl]pyrrolidine-2-carboxamide]	35 to 70%	> 1000 nM
C=CC(=O)N1CCN(c2nc(O[C@H](C)CN3CCC(OCCOCCOCCOCCOCCOCCOCCOCCOCCOCCOCC(=O)N[C@H](C(=O)N4C[C@H](O)C[C@H]4C(=O)N[C@@H](C)c4ccc(-c5scnc5C)cc4)C(C)(C)C)CC3)nc3c(F)c(-c4cc(O)cc5ccccc45)c(Cl)cc23)CC1 [Compound 83, (2S,4R)-1-[(2S)-2-[32-({1-[(2R)-2-{[6-chloro-8-fluoro-7-(3-hydroxynaphthalen-1-yl)-4-[4-(prop-2-enoyl)piperazin-1-yl]quinazolin-2-yl]oxy}propyl]piperidin-4-yl}oxy)-3,6,9,12,15,18,21,24,27,30-decaoxadotriacontanamido]-3,3-dimethylbutanoyl]-4-hydroxy-N-[(1S)-1-[4-(4-methyl-1,3-thiazol-5-yl)phenyl]ethyl]pyrrolidine-2-carboxamide]	–	> 1000 nM
C=CC(=O)N1CCN(c2nc(O[C@H](C)CN3CCC(OCCOCC(=O)N[C@H](C(=O)N4C[C@H](O)C[C@H]4C(=O)N[C@@H](C)c4ccc(-c5scnc5C)cc4)C(C)(C)C)CC3)nc3c(F)c(-c4cc(O)cc5ccccc45)c(Cl)cc23)CC1 (atropisomer, axis not shown) [Compound 85, (2S,4R)-1-[(2S)-2-{2-[2-({1-[(2R)-2-{[6-chloro-8-fluoro-7-(3-hydroxynaphthalen-1-yl)-4-[4-(prop-2-enoyl)piperazin-1-yl]quinazolin-2-yl]oxy}propyl]piperidin-4-yl}oxy)ethoxy]acetamido}-3,3-dimethylbutanoyl]-4-hydroxy-N-[(1S)-1-[4-(4-methyl-1,3-thiazol-5-yl)phenyl]ethyl]pyrrolidine-2-carboxamide]	–	> 1000 nM
C=CC(=O)N1CCN(c2nc(O[C@H](C)CN3CCC(OCCOCCOc4cc(-c5scnc5C)ccc4CNC(=O)[C@@H]4C[C@@H](O)CN4C(=O)[C@H](c4cc(C)no4)C(C)C)CC3)nc3c(F)c(-c4cc(O)cc5ccccc45)c(Cl)cc23)CC1 [Compound 71, (2S,4R)-N-[(2-{2-[2-({1-[(2R)-2-{[6-chloro-8-fluoro-7-(3-hydroxynaphthalen-1-yl)-4-[4-(prop-2-enoyl)piperazin-1-yl]quinazolin-2-yl]oxy}propyl]piperidin-4-yl}oxy)ethoxy]ethoxy}-4-(4-methyl-1,3-thiazol-5-yl)phenyl)methyl]-4-hydroxy-1-[(2S)-3-methyl-2-(3-methyl-1,2-oxazol-5-yl)butanoyl]pyrrolidine-2-carboxamide]	< 35%	100 to 1000 nM
C=CC(=O)N1CCN(c2nc(O[C@H](C)CN3CCC(OCCOCCOCCOc4cc(-c5scnc5C)ccc4CNC(=O)[C@@H]4C[C@@H](O)CN4C(=O)[C@@H](c4cc(C)no4)C(C)C)CC3)nc3c(F)c(-c4cc(O)cc5ccccc45)c(Cl)cc23)CC1 [Compound 70, (2S,4R)-N-{[2-(2-{2-[2-({1-[(2R)-2-{[6-chloro-8-fluoro-7-(3-hydroxynaphthalen-1-yl)-4-[4-(prop-2-enoyl)piperazin-1-yl]quinazolin-2-yl]oxy}propyl]piperidin-4-yl}oxy)ethoxy]ethoxy}ethoxy)-4-(4-methyl-1,3-thiazol-5-yl)phenyl]methyl}-4-hydroxy-1-[(2R)-3-methyl-2-(3-methyl-1,2-oxazol-5-yl)butanoyl]pyrrolidine-2-carboxamide]	–	> 1000 nM
C=CC(=O)N1CCN(c2nc(O[C@H](C)CN3CCC(OCCOCC(=O)N[C@H](C(=O)N4C[C@H](O)C[C@H]4C(=O)N[C@@H](C)c4ccc(-c5scnc5C)cc4)C(C)(C)C)CC3)nc3c2CCN(c2cccc4ccccc24)C3)C[C@@H]1CC#N [Compound 58, (2S,4R)-1-[(2S)-2-{2-[2-({1-[(2R)-2-({4-[(3S)-3-(cyanomethyl)-4-(prop-2-enoyl)piperazin-1-yl]-7-(naphthalen-1-yl)-5H,6H,7H,8H-pyrido[3,4-d]pyrimidin-2-yl}oxy)propyl]piperidin-4-yl}oxy)ethoxy]acetamido}-3,3-dimethylbutanoyl]-4-hydroxy-N-[(1S)-1-[4-(4-methyl-1,3-thiazol-5-yl)phenyl]ethyl]pyrrolidine-2-carboxamide]	–	> 1000 nM
C=C(F)C(=O)N1CCN(c2nc(O[C@H](C)CN3CCC(COc4cc([C@@H](C(=O)N5C[C@H](O)C[C@H]5C(=O)N[C@@H](C)c5ccc(-c6scnc6C)cc5)C(C)C)on4)CC3)nc3c(F)c(-c4cc(O)cc5ccccc45)c(Cl)cc23)CC1 [Compound 18, (2S,4R)-1-[(2S)-2-[3-({1-[(2R)-2-({6-chloro-8-fluoro-4-[4-(2-fluoroprop-2-enoyl)piperazin-1-yl]-7-(3-hydroxynaphthalen-1-yl)quinazolin-2-yl}oxy)propyl]piperidin-4-yl}methoxy)-1,2-oxazol-5-yl]-3-methylbutanoyl]-4-hydroxy-N-[(1S)-1-[4-(4-methyl-1,3-thiazol-5-yl)phenyl]ethyl]pyrrolidine-2-carboxamide]	–	> 1000 nM
C=C(F)C(=O)N1CCN(c2nc(O[C@H](C)CN3CCC(COc4cc([C@H](C(=O)N5C[C@H](O)C[C@H]5C(=O)N[C@@H](C)c5ccc(-c6scnc6C)cc5)C(C)C)on4)CC3)nc3c(F)c(-c4cc(O)cc5ccccc45)c(Cl)cc23)CC1 [Compound 14, (2S,4R)-1-[(2R)-2-[3-({1-[(2R)-2-({6-chloro-8-fluoro-4-[4-(2-fluoroprop-2-enoyl)piperazin-1-yl]-7-(3-hydroxynaphthalen-1-yl)quinazolin-2-yl}oxy)propyl]piperidin-4-yl}methoxy)-1,2-oxazol-5-yl]-3-methylbutanoyl]-4-hydroxy-N-[(1S)-1-[4-(4-methyl-1,3-thiazol-5-yl)phenyl]ethyl]pyrrolidine-2-carboxamide]	–	> 1000 nM
C=CC(=O)N1CCN(c2nc(O[C@H](C)CN3CCC(OCCOCCOCCOCCOc4cc(-c5scnc5C)ccc4CNC(=O)[C@@H]4C[C@@H](O)CN4C(=O)[C@H](c4cc(C)no4)C(C)C)CC3)nc3c(F)c(-c4cc(O)cc5ccccc45)c(Cl)cc23)CC1 [Compound 75, (2S,4R)-N-({2-[2-(2-{2-[2-({1-[(2R)-2-{[6-chloro-8-fluoro-7-(3-hydroxynaphthalen-1-yl)-4-[4-(prop-2-enoyl)piperazin-1-yl]quinazolin-2-yl]oxy}propyl]piperidin-4-yl}oxy)ethoxy]ethoxy}ethoxy)ethoxy]-4-(4-methyl-1,3-thiazol-5-yl)phenyl}methyl)-4-hydroxy-1-[(2S)-3-methyl-2-(3-methyl-1,2-oxazol-5-yl)butanoyl]pyrrolidine-2-carboxamide]	< 35%	> 1000 nM
